Source: patent US9695155B2, “Herbicidal substituted pyrimidinyloxy benzene compounds” (E. I. DU PONT DE NEMOURS AND COMPANY, priority 2013, dated 2017)

Key:
[1] = tested on: lambsquarters; experiment: Test C preemergence; type: in vivo, Chenopodium album; conditions: for Lambsquarters plant response rating: preemergence; for Plant response rating, Lambsquarters: Preemergence, scale 0 to 100, 0 no effect, 100 complete control
Outline: (§1)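 Visual ratings on a 0–100 scale (100 = complete control) were made versus untreated controls after 13–15 greenhouse days. Chemicals in a surfactant-containing non-phytotoxic solvent were applied either preemergence to seeds in loam–sand soil or postemergence to 1- to 4-leaf plants 2–18 cm tall.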

[2] = tested on: Italian ryegrass; experiment: Test C preemergence; type: in vivo, Lolium multiflorum; conditions: for Ryegrass, Italian plant response rating: preemergence; for Plant response rating, Ryegrass, Italian: Preemergence, scale 0 to 100, 0 no effect, 100 complete control
Outline: as §1

[3] = tested on: barnyardgrass; experiment: Test C preemergence; type: in vivo, Echinochloa crus-galli; conditions: for Barnyardgrass plant response rating: preemergence; for Plant response rating, Barnyardgrass: Preemergence, scale 0 to 100, 0 no effect, 100 complete control
Outline: as §1

[4] = tested on: pigweed; experiment: Test A postemergence; type: in vivo, Amaranthus retroflexus
Outline: (§2)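 Greenhouse pot test, loam/sand soil. Formulation: non-phytotoxic solvent mix plus surfactant. Pre: directed spray onto soil after sowing. Post: plants at 1–2 leaf, 2–10 cm. Rated visually vs untreated controls at ~10 d, 0 (no effect) to 100 (complete control).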

[5] = tested on: Heteranthera limosa; experiment: Test B flooded paddy test; type: in vivo; conditions: Flood, 250 g ai/ha; 0 to 100 scale where 0 is no effect and 100 is complete control
Outline: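 Compound added straight to paddy water, with pots kept flooded 3 cm above soil, on plants grown to the 2-leaf stage. Visual scoring 0-100 (100 = complete control) against untreated controls after 13 to 15 greenhouse days.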

[6] = tested on: velvetleaf; experiment: Test C preemergence; type: in vivo, Abutilon theophrasti; conditions: for Velvetleaf plant response rating: preemergence; for Plant response rating, Velvetleaf: Preemergence, scale 0 to 100, 0 no effect, 100 complete control
Outline: as §1

[7] = tested on: wheat, winter; experiment: Test C preemergence; type: in vivo, Triticum aestivum; conditions: for Wheat plant response rating: preemergence; for Plant response rating, Wheat: Preemergence, scale 0 to 100, 0 no effect, 100 complete control
Outline: as §1

[8] = tested on: morningglory; experiment: Test A postemergence; type: in vivo, Ipomoea spp.; conditions: 0 to 100 scale where 0 is no effect and 100 is complete control; for Morningglory plant response rating: 125 g ai/ha; for Plant response rating, Morningglory: 500 g ai/ha
Outline: as §2

[9] = tested on: giant foxtail; experiment: Test A preemergence; type: in vivo, Setaria faberii; conditions: for Foxtail, Giant plant response rating: 500 g ai/ha
Outline: as §2

[10] = tested on: giant foxtail; experiment: Test A postemergence; type: in vivo, Setaria faberii
Outline: as §2

[11] = tested on: blackgrass; experiment: Test C preemergence; type: in vivo, Alopecurus myosuroides; conditions: for Blackgrass plant response rating: preemergence; for Plant response rating, Blackgrass: Preemergence, scale 0 to 100, 0 no effect, 100 complete control
Outline: as §1

[12] = tested on: barnyardgrass; experiment: Test A postemergence; type: in vivo, Echinochloa crus-galli
Outline: as §2

[13] = 16 g ai/ha, scale 0 to 100 (0 no effect, 100 complete control)
[14] = 125 g ai/ha, scale 0 (no effect) to 100 (complete control)
[15] = 125 g ai/ha, 0 to 100 scale where 0 is no effect and 100 is complete control
[16] = 500 g ai/ha, 0 to 100 scale where 0 is no effect and 100 is complete control
[17] = 0 to 100 scale where 0 is no effect and 100 is complete control
[18] = 31 g ai/ha, 0 to 100 scale, 0 no effect, 100 complete control
[19] = 125 g ai/ha, 0 to 100 scale, 0 no effect, 100 complete control
[20] = 31 g ai/ha, 0 to 100 scale where 0 is no effect and 100 is complete control, visual, approximately 10 days
[21] = 62 g ai/ha, scale 0 (no effect) to 100 (complete control)

| SMILES | Lambsquarters plant response rating [1, 13] | Lambsquarters plant response rating [1, 14] | Ryegrass, Italian plant response rating [2, 13] | Ryegrass, Italian plant response rating [2, 14] | Barnyardgrass plant response rating [3, 13] | Barnyardgrass plant response rating [3, 14] | Plant response rating, Ducksalad [5] | Velvetleaf plant response rating [6, 13] | Velvetleaf plant response rating [6, 14] | Wheat plant response rating [7, 13] | Wheat plant response rating [7, 14] | Blackgrass plant response rating [11, 13] | Blackgrass plant response rating [11, 14] | Lambsquarters plant response rating [1, 21] | Ryegrass, Italian plant response rating [2, 21] | Barnyardgrass plant response rating [3, 21] | Plant response rating, Barnyardgrass ([3]; 31 g ai/ha) | Velvetleaf plant response rating [6, 21] | Wheat plant response rating [7, 21] | Plant response rating, Foxtail, Giant [9, 15] | further results |
| --- | --- | --- | --- | --- | --- | --- | --- | --- | --- | --- | --- | --- | --- | --- | --- | --- | --- | --- | --- | --- | --- |
| CCOc1cnn(-c2ccccc2Oc2ncc(Cl)cn2)c1 [Compound 187] | 5 | 100 | 0 | 5 | 5 | 90 | 65 | 25 | 100 | 0 | 0 | 0 | 100 |  |  |  |  |  |  |  | Plant response rating, Lambsquarters ([1]; 62 g ai/ha): 98; Plant response rating, Ryegrass, Italian ([2]; 62 g ai/ha): 0; Plant response rating, Barnyardgrass ([3]; 62 g ai/ha): 65; Pigweed plant response rating [4, 15]: 70; Plant response rating, Pigweed [4, 16]: 100; Plant response rating, Velvetleaf ([6]; 62 g ai/ha): 95; Plant response rating, Wheat ([7]; 62 g ai/ha): 0; Morningglory plant response rating [8]: 70; Plant response rating, Morningglory [8]: 100; Foxtail, Giant plant response rating (0 to 100 scale) ([9]; 125 g ai/ha): 100; Foxtail, Giant plant response rating [9, 17]: 100; Foxtail, Giant plant response rating [10, 15]: 60; Plant response rating, Foxtail, Giant [10, 16]: 90; Plant response rating, Blackgrass ([11]; 62 g ai/ha): 30; Barnyardgrass plant response rating [12, 15]: 80; Plant response rating, Barnyardgrass [12, 16]: 90 |
| Fc1cccc(Oc2ncc(Cl)cn2)c1-n1cc(OCC(F)(F)F)cn1 [Compound 270] | 80 | 100 | 0 | 50 | 0 | 100 | 100 | 0 | 100 | 0 | 5 | 0 | 95 |  |  |  |  |  |  |  | Plant response rating, Lambsquarters ([1]; 62 g ai/ha): 100; Plant response rating, Ryegrass, Italian ([2]; 62 g ai/ha): 10; Plant response rating, Barnyardgrass ([3]; 62 g ai/ha): 90; Plant response rating, Pigweed [4, 18]: 60; Plant response rating, Pigweed [4, 19]: 100; Plant response rating, Velvetleaf ([6]; 62 g ai/ha): 98; Plant response rating, Wheat ([7]; 62 g ai/ha): 0; Plant response rating, Foxtail, Giant [9, 20]: 40; Foxtail, Giant plant response rating (0 to 100 scale) ([9]; 125 g ai/ha): 100; Plant response rating, Foxtail, Giant [10, 18]: 10; Plant response rating, Foxtail, Giant [10, 19]: 90; Plant response rating, Blackgrass ([11]; 62 g ai/ha): 70; Plant response rating, Barnyardgrass [12, 18]: 10; Plant response rating, Barnyardgrass [12, 19]: 80 |
| Fc1cccc(Oc2ncc(Cl)cn2)c1-n1cc(I)cn1 [Compound 179] | 85 | 100 | 0 | 70 | 5 | 100 | 80 | 60 | 100 | 0 | 5 | 0 | 90 | 100 | 30 | 90 | 10 | 98 | 0 | 100 | Pigweed plant response rating [4, 15]: 100; Plant response rating, Pigweed [4, 16]: 100; Morningglory plant response rating [8]: 70; Plant response rating, Morningglory [8]: 100; Foxtail, Giant plant response rating [9, 17]: 100; Foxtail, Giant plant response rating [10, 15]: 80; Plant response rating, Foxtail, Giant [10, 16]: 90; Blackgrass plant response rating [11, 21]: 40; Plant response rating, Blackgrass ([11]; 31 g ai/ha): 50; Barnyardgrass plant response rating [12, 15]: 80; Plant response rating, Barnyardgrass [12, 16]: 100 |
| FCc1cccc(Oc2ncc(F)cn2)c1-n1cc(C(F)(F)F)cn1 [Compound 118] | 100 | 100 | 0 | 100 | 20 | 100 | 90 | 100 | 100 | 0 | 90 | 35 | 95 | 100 | 70 | 100 | 80 | 100 | 10 | 100 | Plant response rating, Lambsquarters ([1]; 31 g ai/ha): 100; Plant response rating, Ryegrass, Italian ([2]; 31 g ai/ha): 40; Plant response rating, Pigweed [4, 18]: 70; Plant response rating, Velvetleaf ([6]; 31 g ai/ha): 100; Plant response rating, Wheat ([7]; 31 g ai/ha): 0; Foxtail, Giant plant response rating (0 to 100 scale) ([9]; 31 g ai/ha): 80; Plant response rating, Foxtail, Giant [10, 18]: 30; Plant response rating, Foxtail, Giant [10, 15]: 80; Blackgrass plant response rating [11, 21]: 90; Plant response rating, Blackgrass ([11]; 31 g ai/ha): 80; Plant response rating, Barnyardgrass [12, 18]: 30; Plant response rating, Barnyardgrass [12, 15]: 80 |
| Fc1cnc(Oc2cccc(C(F)F)c2-n2cc(Br)cn2)nc1 [Compound 112] | 98 | 98 | 0 | 30 | 0 | 90 | 90 | 65 | 100 | 0 | 10 | 0 | 95 | 100 | 5 | 30 | 5 | 100 | 0 | 100 | Plant response rating, Lambsquarters ([1]; 31 g ai/ha): 100; Plant response rating, Ryegrass, Italian ([2]; 31 g ai/ha): 0; Plant response rating, Pigweed [4, 16]: 100; Plant response rating, Velvetleaf ([6]; 31 g ai/ha): 70; Plant response rating, Wheat ([7]; 31 g ai/ha): 0; Plant response rating, Morningglory [8]: 100; Foxtail, Giant plant response rating ([9]; 0 to 100 scale, 0 no effect, 100 complete control, approx. 10 days): 100; Plant response rating, Foxtail, Giant [10, 15]: 30; Plant response rating, Foxtail, Giant [10, 16]: 90; Blackgrass plant response rating [11, 21]: 40; Plant response rating, Blackgrass ([11]; 31 g ai/ha): 30; Plant response rating, Barnyardgrass [12, 15]: 40; Plant response rating, Barnyardgrass [12, 16]: 90 |
| N#Cc1cnn(-c2c(CF)cccc2Oc2ncc(F)cn2)c1 [Compound 151] | 100 | 100 | 0 | 45 | 5 | 100 | 70 | 85 | 100 | 0 | 40 | 0 | 90 | 100 | 35 | 70 | 5 | 100 | 0 | 100 | Plant response rating, Pigweed [4, 18]: 20; Pigweed plant response rating [4, 15]: 70; Plant response rating, Foxtail, Giant [9, 20]: 100; Plant response rating, Foxtail, Giant [10, 18]: 0; Foxtail, Giant plant response rating [10, 15]: 40; Blackgrass plant response rating [11, 21]: 10; Plant response rating, Blackgrass ([11]; 31 g ai/ha): 0; Plant response rating, Barnyardgrass [12, 18]: 0; Barnyardgrass plant response rating [12, 15]: 60 |
